Measurements as given in patent US9284350B2, “IAP BIR domain binding compounds” (Pharmascience Inc., priority 2010, dated 2016).

How the values were obtained:
[1] = target: T1, XIAP (Homo sapiens, UniProt P98170); assay: Fluorescence polarization-based competition assay, XIAP; format: binding; conditions: FP assay, ki derived from IC50
T1 construct: fused on or other part: GST tag at the N-terminus (pGEX4T vectors)
Method in brief: (§1)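 Competition of FITC-labelled probe (2 nM) binding to the BIR domain, protein set at 80% of maximal FP signal; 10-point compound dilutions in 50 mM HEPES pH 7.5, γ-globulin, 2 mM DTT, 1% DMSO, 1 h at room temperature in the dark. IC50 from sigmoidal fit; Ki derived from IC50.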

[2] = target: T2, c-IAP1 (Homo sapiens, UniProt Q13490); assay: Fluorescence polarization-based competition assay, c-IAP1; format: binding; conditions: FP assay, ki derived from IC50
T2 construct: GST (N); made in house; host or cells: E. coli DH5α
T2 sequence (Q13490 251-363): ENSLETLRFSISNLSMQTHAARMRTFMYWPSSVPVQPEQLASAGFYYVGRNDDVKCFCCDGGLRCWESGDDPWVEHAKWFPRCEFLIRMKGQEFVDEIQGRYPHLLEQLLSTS
Method in brief: as §1

[3] = target: T3, cIAP2 (Homo sapiens, UniProt Q13489); assay: Fluorescence polarization-based competition assay, cIAP2; format: binding; conditions: FP assay, ki derived from IC50
T3 construct: GST (N); made in house; host or cells: E. coli DH5α
T3 sequence (Q13489 236-349): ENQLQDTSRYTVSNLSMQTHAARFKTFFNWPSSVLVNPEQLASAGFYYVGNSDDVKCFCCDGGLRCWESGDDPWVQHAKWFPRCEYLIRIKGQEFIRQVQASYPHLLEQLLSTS
Method in brief: as §1

[4] = tested on: Colorectal carcinoma HCT116 cells; assay: Cell death assay (MTT) in combination with HGS ETR1; format: cell-based; conditions: with HGS ETR1 30 ng/ml, 72 hours, read-out: HCT116+ mapatubimap EC50
Method in brief: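 HCT116 cells (2000/well, McCoy's 5a, 10% FBS) were treated 24 h after plating with compound plus the agonistic TRAIL receptor antibody mapatumumab (ETR1, 30 ng/ml) for 72 hours. Viability was read by MTT. EC50 was the concentration giving 50% survival relative to untreated controls.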

[5] = tested on: MDA-MB-231 (CD) cells; assay: MDA-MB-231 compound + mapatubamab xenograft study; format: in vivo, nude mice; conditions: 30 and 60 mg/kg, PO, QD in combination with mapatubamab (10 mg/kg, IV)
Experimental: Female, nude mice received 5×10^6 MDA-MB-231 (CD) cells subcutaneously in the right flank (0.1 mL volume) on day 0 of the experiment. When the average tumor size reached ˜100 mm^3, groups were formed using a balanced design based on tumor size, and dosing was initiated. Test compound 10 or 7 (see Table 1) (or corresponding vehicle alone) was given daily, and mapatubamab (or corresponding vehicle alone) was given twice weekly. Tumor size and body weight were measured twice weekly throughout the study.

[6] = Maximum Tolerated Dose (MTD) study; format: in vivo, CD-1 mice; conditions: 350 mg/kg dose, PO twice weekly
Experimental: Male, CD-1 mice (20-25 g on arrival, Charles River) were habituated to the animal facility for four days and then randomly assigned to treatment groups. Animals were dosed by oral gavage twice weekly, for a total of six treatments, with compounds 63, 58, 45, 10, 20, 40, and 66 at 15, 70, or 350 mg/kg in water, PO, or water alone (5 ml/kg, PO). Body weight and general health were monitored throughout the experiment. Twenty four hours after the last dose (day 19), animals were anesthetized with isoflurane, and blood was collected for serum biochemistry. Serum biochemical parameters were restricted to random glucose, urea, creatinine, total protein, albumin, globulin, A:G ratio, total bilirubin, AST, ALT, alkaline phosphatase, GGT and amylase. Once exsanguinated the animals underwent full necropsy and organ weights were recorded for brain, heart, liver, spleen, kidneys, stomach (empty) and intestine (empty, from stomach to cecum). Because some treatments were suppressing weight gain (see below), organ weights were normalized to brain weight, and then expressed as percent change from the vehicle treated control group.

T1 sequence (P98170 246-497 limits assumed): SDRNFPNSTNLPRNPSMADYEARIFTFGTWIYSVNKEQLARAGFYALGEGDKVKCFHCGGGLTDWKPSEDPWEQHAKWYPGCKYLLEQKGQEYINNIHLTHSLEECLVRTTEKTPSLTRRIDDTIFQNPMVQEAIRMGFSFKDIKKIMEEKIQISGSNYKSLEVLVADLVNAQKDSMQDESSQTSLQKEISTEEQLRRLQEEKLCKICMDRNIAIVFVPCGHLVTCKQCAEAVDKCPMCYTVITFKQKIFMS

SMILES	Ki [1] [nM]	Ki [2] [nM]	Ki [3] [nM]	EC50 [4] [nM]	reduction of tumor volume as compared to control [5] [%]	body weight change [6]
CN[C@@H](C)C(=O)N[C@H](C(=O)N1CCC[C@H]1CN(CCc1ccc(F)cc1)C(=O)c1cn2cccnc2n1)C(C)(C)C [Compound 10]	< 250	< 25	< 25	< 50	50	
CN[C@@H](C)C(=O)N[C@H](C(=O)N1CCC[C@H]1CN(CCc1ccc(F)cc1)C(=O)c1cn2cc(F)cnc2n1)C(C)(C)C [Compound 63]	< 250	< 25	< 25	< 50		slight weight loss
CN[C@@H](C)C(=O)N[C@H](C(=O)N1CCC[C@H]1CN(CCc1ccccc1)C(=O)c1cn2ccccc2n1)C(C)(C)C [Compound 7]	< 250	< 25	< 25	< 250	50	
CN[C@@H](C)C(=O)N[C@H](C(=O)N1CCC[C@H]1CN(CCc1ccc(F)cc1)C(=O)c1cn(C)cn1)C(C)(C)C [Compound 40]	< 250	< 25	< 25	< 50		slight weight loss
CN[C@@H](C)C(=O)N[C@H](C(=O)N1CCC[C@H]1CN(CCc1ccc(F)cc1)C(=O)c1cc2ccccn2c1)C(C)(C)C [Compound 68]	< 250	< 25	< 25	< 250		
CCO[C@H](C)[C@H](NC(=O)[C@H](C)NC)C(=O)N1CCC[C@H]1CN(CCc1ccc(F)cc1)C(=O)c1cn2c(n1)CCC2 [Compound 81]	< 250	< 25	< 25	< 50		
CN[C@@H](C)C(=O)N[C@H](C(=O)N1C[C@@H](Oc2ccc(F)cc2)C[C@H]1CN(CCc1ccc(F)cc1)C(=O)c1cn2cccnc2n1)C(C)(C)C [Compound 65]	< 25	< 25	< 25	< 50		
CN[C@@H](C)C(=O)N[C@H](C(=O)N1C[C@@H](Oc2ccc(F)cc2)C[C@H]1CN(CCc1ccc(F)cc1)C(=O)c1cn2cc(F)cnc2n1)C(C)(C)C [Compound 116]	< 25	< 25	< 25	< 50		
CN[C@@H](C)C(=O)N[C@H](C(=O)N1CCC[C@H]1CN(CCc1ccc(F)cc1)C(=O)c1cn(C(C)C)cn1)C(C)(C)C [Compound 94]	< 250	< 25	< 25	< 50		
CN[C@@H](C)C(=O)N[C@H](C(=O)N1CCC[C@H]1CN(CCc1ccc(F)cc1)C(=O)c1cc(-c2ccccc2)[nH]n1)C(C)(C)C [Compound 88]	< 250	< 25	< 25	< 250		
CN[C@@H](C)C(=O)N[C@H](C(=O)N1CCC[C@H]1CN(CCc1ccc(F)cc1)C(=O)c1cn2c(n1)CCC2)[C@@H](C)OC [Compound 75]	< 250	< 25	< 25	< 50		
